Experimental data taken from US8377883B2, “Peptide for anti-angiogenesis and use thereof” (Beijing Institute for Cancer Research, priority 2006, dated 2013).

Tested on: human gastric carcinoma BGC-823 cells
Test: Tumor suppression in human gastric carcinoma BGC-823 tumor-bearing nude mice model
Type: in vivo, Balb/c nude mice
Settings: 50 μg/100 μl PBS/injection, angulus oculi medialis vein once every other day, 10 times; vs vehicle, P<0.05
Description: In order to confirm the biological effects of FpAT on the growth of human deriving tumors in nude mice in vivo, a tumor suppression experiment was carried out in this example using human gastric carcinoma BGC-823 cells tumor-bearing nude mice model, human lung cancer PG cells tumor-bearing nude mice model and human colon cancer HT-29 cells tumor-bearing nude mice model.
Twenty 5-week old Balb/c nude mice purchased from Animal Center Of Chinese Academy Of Medical Sciences were inoculated subcutaneously in forelimb with human gastric carcinoma BGC-823 cells (National Institute for the Control of Pharmaceutical and Biological Products) (5×10^6/100 μl/mouse), human lung cancer PG cells (National Institute for the Control of Pharmaceutical and Biological Products) (5×10^6/100 μl/mouse) or human colon cancer HT-29 cells (ATCC® Number: HTB-38™) (5×10^6/100 μl/mouse). On the next day after inoculation, each kind of inoculated cells were divided into 2 groups randomly with 5 mice per group. […] Observation was continued for another 20 days after administration was stopped, and during this period the long and short diameters of the tumors were measured with a vernier caliper once every three days, and the volumes of the tumor mass were calculated according to formula ½×long diameter×short diameter^2. […]

Substance: H2N-Asp-Ser-Gly-Glu-Gly-Asp-Phe-Leu-Ala-Glu-Gly-Gly-Gly-Val-Arg-COOH (H-DSGEGDFLAEGGGVR-OH; listed as Homo sapiens) [FpAT, fibrinopeptide A truncated, carboxyl terminal 15 amino acids of fibrinopeptide A]
- growth of human gastric carcinoma BGC-823 cells in nude mice (tumor mass): could suppress the growths
